In general, IC50 refers to the point on the concentration scale where inhibition reaches its midpoint. Higher therefore signals weaker potency.

The source of these data is US8158799B2, “Hydroxyquinoline derivatives” (Merck Patent Gesellschaft MIT Meschraenkter Haftung, priority 2005, dated 2012).

The assay deals with colon carcinoma cell lines. Nature of the assay: Inhibition of the proliferation of tumour cells in vitro (propidium iodide uptake). The class given is cell-based. Conditions: 72 h, 10,000 cells per well, 3 days incubation at 37° C., propidium iodide/NP40 fluorescence, % of control. The text has this:
The antiproliferative action can be tested in an HCT116 proliferation assay.
The present experimental description describes the inhibition of tumour cell proliferation by active ingredients.
The cell proliferation is estimated by measurement of the uptake of propidium iodide. […] It is prevented from entering healthy cells. However, if cells have been killed by addition of the detergent NP40, cell membrane and nuclear membrane become permeable. PI attaches itself to the DNA of the cell nuclei and fluoresces in this complex. This fluorescence is measured in the fluorimeter.
commercially available colon carcinoma cell lines
10,000 cells are plated out per well, in a volume of 180 μl, in a 96-hole plate. The outer rows A1-12, 1A-H, 12A-H and H1-12 are only filled with 200 μl of medium or buffer.
The cells are incubated for 24 hours, at 37° C. and 10% CO2 gassing.
In order to test active substances, the corresponding dilutions must first be produced and assigned to the wells. The scheme of a 1:3 dilution indicated here as an example can be varied correspondingly as desired. The scheme described is designed for 4 test substances.
20 μl of medium, solvent dilution or the corresponding dilution of the positive control (IC50) are pipetted into these holes.
Substance groups (column B-G, wells 2-9): 20 μl of substance dilution are pipetted into these holes.
147 μl of medium is introduced into each of the wells of row B of the extra plate in columns 1, 2, 3, 4, and 3 μl of the test substance are added (=300 μM). 100 μl of medium are introduced into rows C-G, columns 1-4. 50 μl are then transferred into row C using a multichannel pipette, mixed 8×, and 50 μl are then transferred from this row into row D. This is continued correspondingly until row G has been reached, in which, after mixing, 50 μl of the dilution are removed and discarded. 100 μl of each desired dilution are now located in the extra plate, and it is now only necessary to transfer 20 μl directly into the test plate.
The plate is incubated at 37° C. and 10% CO2 gassing for 3 days.
The cells multiplying in this time are determined by means of propidium iodide.
20 μl of PI stock solution and 10 μl of NP40 stock solution are required per well. Since each plate has 72 wells charged with PI and with NP40, 1440 μl of the PI stock solution and 720 μl of the NP40 stock solution are required per plate. Taking into account pipetting losses, 1.8 ml of PI stock solution are thus taken and mixed with 0.9 ml of the NP40 stock solution immediately before pipetting in. 30 μl of the PI/NP40 mixture are now pipetted into each of the wells of the plate, each of which contain 200 μl of medium. The plate is subsequently placed in the incubator for 2 hours.
The plate(s) is measured in a fluorescence photometer at a wavelength Ex. 520 nm and Em of 620 nm. The background (=medium+PI) is subtracted from all values, which are subsequently averaged (double values) and expressed or calculated in % of control.
An IC50 (half-maximum action) can now be calculated using a statistics program such as, for example, RS1.
Prepare the desired stock solution at […] in DMSO. Adjust to ten times the concentration to be tested in the cell culture (see above) by dilution in culture medium.

`O=C(CC(c1ccccc1)c1ccccc1)Nc1cc(Cl)c2cccnc2c1O` [Compound A1, N-(5-chloro-8-hydroxyquinolin-7-yl)-3,3-diphenylpropionamide] returned a half-maximal inhibitory concentration (IC50) of 90 nM.
Then `CCOc1ccccc1NC(=O)Nc1ccc2cccnc2c1O` [Compound A20, 1-(2-Ethoxyphenyl)-3-(8-hydroxyquinolin-7-yl)-urea], with 210 nM; and `O=C(Nc1cc(Cl)c2cccnc2c1O)NC(c1ccccc1)c1ccccn1` (stereo not drawn) [Compound A14, 1-(5-chloro-8-hydroxyquinolin-7-yl)-3-(phenylpyridin-2-ylmethyl)urea], with 90 nM; and `O=C(Nc1cc(Cl)c2cccnc2c1O)C(c1ccccc1)c1ccccc1` [Compound A2, N-(5-chloro-8-hydroxyquinolin-7-yl)-2,2-diphenylacetamide], with 2100 nM.
For the molecule `O=C(Nc1ccc(C(F)(F)F)cc1)Nc1ccc2cccnc2c1O` [Compound A19, 1-(8-Hydroxyquinolin-7-yl)-3-(4-trifluoromethylphenyl)urea], the IC50 worked out at 1500 nM.
Then `O=C(Nc1cc(Cl)c2cccnc2c1O)C(Cc1ccccn1)c1ccccc1` (stereo not drawn) [Compound A3, N-(5-chloro-8-hydroxyquinolin-7-yl)-2-phenyl-3-pyridin-2-ylpropionamide], with 1100 nM.
